Consider 11 molecules from publication PMC2828149 (Journal of ethnopharmacology, 2009).

In brackets after ≈: the same amount, converted by molar mass. Where two headings read alike, the source gives them in different places. Bounds are passed on as bounds.

One data set is described as follows: in vitro. The class given is cell-based. Conditions: human.
Data set [1] concerns ROS generation in Myelomonocytic HL-60 cells. Put plainly: cell based antioxidant assay, inhibition of PMA-induced ROS generation. The note with it: for Antioxidant IC50: inhibition of PMA-induced ROS generation in HL-60 cells; for IC50: Homo sapiens, HL-60, read-out: Antioxidant IC50.
Data set [2] deals with T1, recombinant human Monoamine Oxidase A (MAO-A) (Homo sapiens, UniProt P21397).
T1 sequence (P21397 1-527): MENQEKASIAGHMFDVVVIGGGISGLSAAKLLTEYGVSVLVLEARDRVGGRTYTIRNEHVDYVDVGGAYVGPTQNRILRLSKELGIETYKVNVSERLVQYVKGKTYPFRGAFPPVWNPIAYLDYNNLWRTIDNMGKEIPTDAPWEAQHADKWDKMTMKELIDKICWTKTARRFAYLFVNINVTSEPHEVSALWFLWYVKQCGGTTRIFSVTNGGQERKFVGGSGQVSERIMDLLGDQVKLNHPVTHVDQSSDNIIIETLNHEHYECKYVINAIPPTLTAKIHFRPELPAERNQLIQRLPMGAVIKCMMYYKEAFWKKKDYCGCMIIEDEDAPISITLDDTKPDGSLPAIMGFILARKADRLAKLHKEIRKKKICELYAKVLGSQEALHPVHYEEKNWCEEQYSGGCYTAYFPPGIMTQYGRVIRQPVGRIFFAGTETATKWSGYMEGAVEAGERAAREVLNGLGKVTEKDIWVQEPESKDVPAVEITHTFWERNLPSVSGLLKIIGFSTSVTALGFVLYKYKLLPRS
Put plainly: kynuramine deamination assay, recombinant human MAO-A. It counts as biochemical. Conditions: for MAO-A inhibitory activity in words: pure compounds; for MAO-A activity more potent than MAO-B: ratio of MAO-B to MAO-A IC50.

A further data set deals with HL-60 cells. Put plainly: in vitro. It counts as cell-based. Conditions: HL-60 cells, 48 hours, XTT. For orientation: Tetrazolium assays rely on reduction of a dye to a coloured formazan, in cell work by metabolically active cells.
Data set [3] deals with T2, recombinant human Monoamine Oxidase B (MAO-B) (Homo sapiens, UniProt P27338).
T2 sequence (P27338 1-520): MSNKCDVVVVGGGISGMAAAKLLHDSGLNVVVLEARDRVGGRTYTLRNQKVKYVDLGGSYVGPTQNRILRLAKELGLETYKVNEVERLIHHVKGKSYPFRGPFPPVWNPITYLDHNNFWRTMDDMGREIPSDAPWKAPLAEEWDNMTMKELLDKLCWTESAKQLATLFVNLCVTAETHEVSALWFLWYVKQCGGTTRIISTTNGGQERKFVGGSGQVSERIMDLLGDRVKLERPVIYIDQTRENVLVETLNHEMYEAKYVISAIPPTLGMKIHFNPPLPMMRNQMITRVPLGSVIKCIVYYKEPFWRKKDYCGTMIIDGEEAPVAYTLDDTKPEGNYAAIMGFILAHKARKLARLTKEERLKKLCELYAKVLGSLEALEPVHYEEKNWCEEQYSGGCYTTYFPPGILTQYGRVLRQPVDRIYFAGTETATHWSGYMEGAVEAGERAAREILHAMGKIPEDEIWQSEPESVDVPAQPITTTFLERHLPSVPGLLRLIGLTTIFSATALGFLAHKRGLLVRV
Put plainly: biochemical. The class given is biochemical.

The next data set relates to rat striatal slices. The note with it: ref Schwartz et al., 2003; cited from earlier work.
For another data set, the system named is MAO-A. Conditions: liver homogenate; ref Schwartz et al., 2003; cited from earlier work.
The next data set concerns PC12 cells. The note with it: ref Cho et al., 2008, Heo and Lee, 2005; cited from earlier work.
The mark [4] stands for this setting: read-out: MAO-A IC50, pure compounds and standards.
Setting [5] is: read-out: MAO-B IC50, pure compounds and standards.

Broadly, the IC50 is the midpoint of a concentration-inhibition curve. `COc1cccc2c1C(=O)c1c(O)c3c(c(O)c1C2=O)C[C@@](O)(C(=O)CO)C[C@@H]3O[C@H]1C[C@H](N)[C@H](O)[C@H](C)O1` [Doxorubicin, reference compound]: the IC50 at 48 h in “in vitro” is 0.2 to 0.35 µg/mL (≈ 0.368 to 0.644 µM).

On to `O=C1O[C@H]([C@@H](O)CO)C(O)=C1O` [Vitamin C, reference compound], for which the “Antioxidant IC50” value in data set [1] is on record as 1.34 µg/mL.

Regarding `Cc1[nH]ccc2c1[nH]c1cc(=O)ccc12` [compound 3, harmol], in data set [2], the concentration for half-maximal inhibition (IC50) was 0.018 µM and the “MAO-A inhibitory activity in words” value is given as “much weaker than 6 or 7”.

As to `COc1ccc2c3c([nH]c2c1)[C@@H](C)NCC3` [compound 5, tetrahydroharmine], in data set [2], the “MAO-A inhibitory activity in words” value is recorded as “much weaker than 6 or 7”. Also, the values for the IC50 in data set [2] (setting [4]) and in data set [3] (setting [5]) were 0.074 µM and greater than 100 µM, respectively. In the data set with HL-60 cells, the “Cytotoxicity IC50” value was “NC (NC = No cytotoxicity to HL-60 cells up to 31.25 µg/mL)”. Also, in data set [1], the “Antioxidant IC50” value is reported as “NA (NA = No antioxidant activity upto 31.25 µg/mL)”.

Consider `COc1ccc2c3c([nH]c2c1)C(C)=NCC3` [compound 6, harmaline], for which the “MAO-A activity more potent than MAO-B” value in data set [2] is > 10,000 fold. Further, in “in vitro”, the IC50 at 48 h stood at 25 µg/mL (≈ 117 µM). In addition, the IC50 in data set [3] was 25 µM; in data set [1], greater than 31.2 µg/mL.

For the molecule `COc1ccc2c(c1)[nH]c1c(C)nccc12` [compound 7, harmine], the “MAO-A activity more potent than MAO-B” value in data set [2] is on record as > 10,000 fold. Moreover, in “in vitro”, the IC50 at 48 h is greater than 31.2 µg/mL. Also, the values for the IC50 in data set [3] and in data set [1] were 20 µM and greater than 31.2 µg/mL, respectively. In addition, the “release of dopamine in words” value in the data set on rat striatal slices is given as “increase”. Moreover, the “inhibition of MAO-A in words” value in the data set with MAO-A is reported as “concentration-dependent inhibition”.

In the case of `Oc1cc(O)c2c(c1)O[C@H](c1ccc(O)c(O)c1)[C@H](O)C2` [compound 8, (−)-2R,3R–Epicatechin], the IC50 in data set [2] was 51.7 µM; in data set [3] it was 65 µM; in data set [1], less than 0.13 µg/mL. Also, in “in vitro”, half-maximal inhibition (IC50 at 48 h) was put at 6.3 µg/mL (≈ 21.7 µM). The “protection from Aβ-induced neurotoxicity in words” value with PC12 cells is reported as “protection”.

For the molecule `Oc1cc(O)c2c(c1)O[C@H](c1ccc(O)c(O)c1)[C@H](O)[C@H]2c1c(O)cc(O)c2c1O[C@H](c1ccc(O)c(O)c1)[C@H](O)C2` [compound 9, (−)-2R,3R-epicatechin-4β,8-(−)-2R,3R-epicatechin], the IC50 in data set [2] (setting [4]) is 8.5 µM; in data set [3] (setting [5]) it was 35 µM. Also, the “Cytotoxicity IC50” value in the data set on HL-60 cells was “NC (NC = No cytotoxicity to HL-60 cells up to 31.25 µg/mL)”. In addition, the “Antioxidant IC50” value in data set [1] was 0.57 µg/mL.

With `Cc1c(C)c2c(c(C)c1O)CCC(C)(C(=O)O)O2` (stereo not drawn) [trolox, reference compound], the IC50 in data set [1] was 0.14 µg/mL (≈ 0.559 µM).

In the case of banistenoside A [compound 1], the IC50 was 4.9 µM in data set [2] (setting [4]) and greater than 100 µM in data set [3] (setting [5]). Besides, in the data set on HL-60 cells, the “Cytotoxicity IC50” value is recorded as greater than 12.5 µg/mL. Further, the “Antioxidant IC50” value in data set [1] is listed as “NA (NA = No antioxidant activity upto 31.25 µg/mL)”.

In the case of banistenoside B [compound 2], the results for the IC50 in data set [2] (setting [4]) and in data set [3] (setting [5]) were 21.5 µM and greater than 100 µM, respectively. Also, in the data set with HL-60 cells, the “Cytotoxicity IC50” value is reported as 7.8 µg/mL.
